Our source for the IC50 and melting point values is patent publication US7906533B2, “Nicotinamide pyridinureas as vascular endothelial growth factor (VEGF) receptor kinase inhibitors” (Bayer Schering Pharma AG, priority 2004, dated 2011).

pIC50: −log10 of the molar value.

One series concerns the target T1, KDR-Kinase (VEGFR-2) (Homo sapiens, UniProt P35968).
T1 construct: GST-kinase domain fusion construct of the KDR kinase; GST
The experiment in a line: KDR Kinase Inhibition. In kind it is biochemical. The settings on record: GST-kinase domain fusion construct of the KDR kinase; poly(Glu4Tyr) substrate, 32P-γATP. The protocol: Kinase activity was measured with a GST-kinase domain fusion construct of the KDR kinase according to the following protocol to obtain concentration response curves. Components were added into a microtiterplate in the following sequence: 10 μl of inhibitor in threefold final concentration [3% DMSO in buffer (40 mM Tris Cl pH 7.5; 1 mM DTT, 1 mM MnCl2, 10 mM MgCl2, 2.5 Promille Polyethyleneglycol 20000)] and 10 μl of substrate mixture [24 μM ATP, 24 μg/ml poly(Glu4Tyr) in buffer, specific activity approx. 500 cpm/pmol ^32P-γATP]. Reaction was started by adding 10 μl of enzyme preparation diluted appropriately in buffer that contains 10 μM vanadate. After incubation for exactly 10 min the reaction was stopped by adding of 10 μl stop solution (250 mM EDTA). 10 μl of the reaction mixture were transferred to phosphocellulose filters. The filters were washed in 0.1% phosphoric acid, dried before meltilex scintillator was applied (Wallac, Perkin-Elmer) and the radioactivity was counted.

Series [1] addresses T2, human Cytochrome P 450 isoenzyme 2C9 (Homo sapiens, UniProt P11712).
T2 construct: host or cells: baculovirus/insect cells
The experiment in a line: Cytochrome P450 Inhibition (2C9). In kind it is in vitro ADME. The settings on record: baculovirus/insect cell-expressed human isoenzyme; read-out: IC50 CYP 2C9. The protocol:
(§1) The Cytochrome P450 isoenzyme inhibition was performed according to the publication of Crespi et al. (Anal. Biochem., 1997, 248, 188-190) with use of the baculovirus/insect cell-expressed, human Cytochrome P 450 isoenzymes (2C9 and 2C19).

In series [2] the target is T3, human Cytochrome P 450 isoenzyme 2C19 (Homo sapiens, UniProt P33261).
T3 construct: host or cells: baculovirus/insect cells
T3 sequence (P33261 whole entry): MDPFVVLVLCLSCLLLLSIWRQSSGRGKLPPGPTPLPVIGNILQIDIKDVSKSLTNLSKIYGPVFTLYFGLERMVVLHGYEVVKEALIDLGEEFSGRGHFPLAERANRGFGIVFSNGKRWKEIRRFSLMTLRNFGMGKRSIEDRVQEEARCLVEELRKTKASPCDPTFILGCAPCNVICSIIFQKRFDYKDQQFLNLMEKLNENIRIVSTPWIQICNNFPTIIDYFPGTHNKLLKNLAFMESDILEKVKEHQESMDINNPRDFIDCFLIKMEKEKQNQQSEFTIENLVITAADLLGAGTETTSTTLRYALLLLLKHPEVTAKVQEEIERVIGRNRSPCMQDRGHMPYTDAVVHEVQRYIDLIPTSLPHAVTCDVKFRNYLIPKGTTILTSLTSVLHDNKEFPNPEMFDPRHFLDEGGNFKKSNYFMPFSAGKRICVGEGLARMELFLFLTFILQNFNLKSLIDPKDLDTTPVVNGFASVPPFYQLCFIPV
The experiment in a line: Cytochrome P450 Inhibition (2C19). It counts as in vitro ADME. The settings on record: baculovirus/insect cell-expressed human isoenzyme; read-out: IC50 CYP 2C19. The protocol:
as §1

T1 sequence (P35968 834-1162 limits assumed, species assumed): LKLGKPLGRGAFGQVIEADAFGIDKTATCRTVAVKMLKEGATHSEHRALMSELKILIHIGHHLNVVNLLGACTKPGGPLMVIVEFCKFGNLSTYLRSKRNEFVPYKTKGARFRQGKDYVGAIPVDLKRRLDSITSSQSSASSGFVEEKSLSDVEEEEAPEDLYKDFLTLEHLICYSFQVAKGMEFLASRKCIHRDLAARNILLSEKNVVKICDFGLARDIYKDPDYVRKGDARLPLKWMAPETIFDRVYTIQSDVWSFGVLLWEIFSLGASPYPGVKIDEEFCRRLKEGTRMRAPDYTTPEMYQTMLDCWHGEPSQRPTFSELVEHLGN
T2 sequence (P11712 whole entry): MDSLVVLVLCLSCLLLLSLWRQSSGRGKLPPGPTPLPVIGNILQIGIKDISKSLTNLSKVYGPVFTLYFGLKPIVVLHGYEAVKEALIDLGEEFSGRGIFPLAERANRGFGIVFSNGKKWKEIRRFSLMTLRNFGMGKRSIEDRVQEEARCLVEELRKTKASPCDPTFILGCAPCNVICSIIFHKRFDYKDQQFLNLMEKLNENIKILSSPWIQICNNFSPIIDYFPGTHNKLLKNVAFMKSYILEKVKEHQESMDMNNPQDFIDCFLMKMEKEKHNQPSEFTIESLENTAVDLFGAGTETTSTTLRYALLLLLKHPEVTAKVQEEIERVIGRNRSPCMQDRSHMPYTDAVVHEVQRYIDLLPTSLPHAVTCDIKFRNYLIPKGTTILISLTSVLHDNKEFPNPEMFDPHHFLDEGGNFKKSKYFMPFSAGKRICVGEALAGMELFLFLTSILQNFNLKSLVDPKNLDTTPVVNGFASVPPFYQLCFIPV

As usually defined, the pIC50 is −log10 of the IC50, conventionally taken in molar units. In general, melting point refers to the temperature of the solid-liquid transition. Compound `CNC(=O)Nc1cc(CNc2ncccc2C(=O)Nc2ccc3cn(C)nc3c2)ccn1` [Example 1.0, N-(2-methyl-2H-indazol-6-yl)-2-{[2-(3-methyl-ureido)-pyridin-4-ylmethyl]-amino}-nicotinamide] showed a melting point of 205 to 207 °C. The pIC50 against KDR-Kinase (VEGFR-2) was 8.00. In addition, in series [1], the pIC50 is 4.93. The pIC50 in series [2] is < 4.52.

Consider `CNC(=O)Nc1cc(CNc2ncccc2C(=O)Nc2cccc(C(F)(F)F)c2)ccn1` [Example 1.1, 2-{[2-(3-methyl-ureido)-pyridin-4-ylmethyl]-amino}-N-(3-trifluoromethyl-phenyl)-nicotinamide], for which the melting point was in the range of 206 to 207 °C.

`CNC(=O)Nc1cc(CNc2ncccc2C(=O)Nc2ccc3cnn(C)c3c2)ccn1` [Example 1.2, N-(1-methyl-1H-indazol-6-yl)-2-{[2-(3-methyl-ureido)-pyridin-4-ylmethyl]-amino}-nicotinamide]: the melting point lay in the range of 228 to 229 °C.

`CNC(=O)Nc1cc(CNc2ncccc2C(=O)Nc2cc3ccccc3cn2)ccn1` [Example 1.3, N-isoquinolin-3-yl-2-{[2-(3-methyl-ureido)-pyridin-4-ylmethyl]-amino}-nicotinamide] had a melting point of 191 to 192 °C.

On to `CNC(=O)Nc1cc(CNc2ncccc2C(=O)Nc2ccc3c(cnn3C)c2)ccn1` [Example 1.4, N-(1-methyl-1H-indazol-5-yl)-2-{[2-(3-methyl-ureido)-pyridin-4-ylmethyl]-amino}-nicotinamide], for which the melting point lay in the range of 219 to 220 °C.

For the compound `Cn1cc2ccc(NC(=O)c3cccnc3NCc3ccnc(NC(=O)N4CCOCC4)c3)cc2n1` [Example 2.0, morpholine-4-carboxylic acid (4-{[3-(2-methyl-2H-indazol-6-ylcarbamoyl)-pyridin-2-ylamino]-methyl}-pyridin-2-yl)-amide], the results for the pIC50 (against KDR-Kinase (VEGFR-2); in series [1]; in series [2]) were 7.54, < 4.52 and < 4.52, respectively.
